Experimental data published in patent publication US7553969B1, “Substituted phenethylamine derivatives” (Chugai Seiyaku Kabushiki Kaisha, priority 1999, dated 2009).
Where a SMILES comes first, the peptide text is derived from it. [ ]: non-standard residue; d: D form. The star is where a group is joined. ξ: configuration not given here. NMeTyr(3-tBu) = CN[C@@H](Cc1ccc(O)c(C(C)(C)C)c1)C(=O)O; Tyr(3-tBu) = CC(C)(C)c1cc(C[C@H](N)C(=O)O)ccc1O; Phe(4-F) = N[C@@H](Cc1ccc(F)cc1)C(=O)O; NMetBuAla = CN[C@@H](CC(C)(C)C)C(=O)O; NMeIle(3ξ) = CCC(C)[C@H](NC)C(=O)O; NMeL = CN[C@@H](CC(C)C)C(=O)O; NMeNva = CCC[C@H](NC)C(=O)O; NMeV = CN[C@H](C(=O)O)C(C)C; Morpholide = C1CN(*)CCO1; NHiPr = CC(C)N*; NHPr = CCCN*

Assays:
motilin receptor = target: T1, motilin receptor (Oryctolagus cuniculus, UniProt G1T803); assay: Motilin receptor binding test (125I motilin, rabbit duodenum protein sample); conditions: 125I motilin 25 pM, concentration reducing specific binding by 50%
T1 construct: homogenized in 50 mM Tris buffer to prepare a protein sample; from tissue; host or cells: rabbit duodenum homogenate (mucous membrane separated)
Experimental: Motilin receptor binding test
A motilin receptor binding test was conducted in the following manner [Vantrappen et al., Regul. Peptides, 15, 143 (1986)]. The duodenum was extracted from a slaughtered rabbit, had the mucous membrane separated and homogenized in 50 mM Tris buffer to prepare a protein sample. The protein sample was incubated together with ^125I motilin 25 pM and thereafter the radioactivity bound to the protein was measured. Specific binding was defined as the difference between the radioactivity in the case of adding a great excess amount of motilin (10^−7 M) and that in the case of no adding. The activity of the compound was expressed by IC50 (in nM), as the concentration sufficient to reduce the specific binding by 50%.

[1] = test system: specimen of longitudinal muscle in the duodenum extracted from a rabbit (motilin-induced contraction); assay: Action on the motilin-induced contraction of a specimen of longitudinal muscle in the duodenum extracted from a rabbit; conditions: Oryctolagus cuniculus, organ bath, Krebs solution 28° C., read-out: Contraction suppressing test, pA2 (converted)
Experimental: Action on the Contraction of a Specimen of Longitudinal Muscle in the Duodenum Extracted from a Rabbit
The action on the motilin-induced contraction of a specimen of longitudinal muscle in the duodenum extracted from a rabbit was investigated by the following method. A duodenum specimen (5×15 mm) extracted from a slaughtered rabbit was suspended in an organ bath (10 ml) such that the longitudinal muscle would run vertically; the bath was filled with a Krebs solution kept at 28° C. A mixed gas (95% O2 and 5% CO2) was continuously bubbled into the Krebs solution and the contraction of the duodenum specimen was recorded isotonically (with a 1-g load) via an isotonic transducer (ME-3407, ME Commercial, Tokyo, Japan). The degree of contraction was expressed in relative values, with the contraction by acetylcholine at a dose of 10^−4 M being taken as 100%. The activity of the compound was calculated as pA2 value indicating its effect on the dose-dependent muscle contraction by the motilin put into the organ bath.

T1 sequence (G1T803 1-400): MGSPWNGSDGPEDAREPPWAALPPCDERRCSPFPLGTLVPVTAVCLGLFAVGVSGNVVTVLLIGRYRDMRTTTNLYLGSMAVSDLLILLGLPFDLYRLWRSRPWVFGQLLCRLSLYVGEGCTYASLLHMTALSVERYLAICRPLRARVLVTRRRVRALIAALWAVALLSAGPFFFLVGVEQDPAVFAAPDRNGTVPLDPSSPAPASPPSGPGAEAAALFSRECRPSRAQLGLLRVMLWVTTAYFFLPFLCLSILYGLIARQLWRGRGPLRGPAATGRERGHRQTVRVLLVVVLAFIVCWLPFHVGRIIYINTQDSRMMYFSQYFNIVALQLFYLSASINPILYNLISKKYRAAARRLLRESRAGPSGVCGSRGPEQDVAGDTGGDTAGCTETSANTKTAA

`CCNC(=O)[C@H](Cc1ccc(O)c(C(C)(C)C)c1)N(CC)C(=O)[C@H](C(C)C)N(C)C(=O)[C@H](Cc1ccc(F)cc1)NC` [Example 108, N-Me-Phe(4-F)-N-Me-Val-N-Et-Tyr(3-tBu)-NHEt] was tested, and the IC50 (motilin receptor) was 0.43 nM and the Kb [1] was 1 nM.

Work on `CCNC(=O)[C@H](Cc1ccc(O)c(C(C)(C)C)c1)N(CC)C(=O)[C@H](C(C)C)N(C)C(=O)[C@H](Cc1ccc(F)cc1)NCC` [Example 109, N-Et-Phe(4-F)-N-Me-Val-N-Et-Tyr(3-tBu)-NHEt] yielded an IC50 (motilin receptor) of 0.17 nM and a Kb [1] of 2 nM.

For `CCCNC(=O)[C@H](Cc1ccc(O)c(C(C)(C)C)c1)NC(=O)[C@H](C(C)C)N(C)C(=O)[C@@H](N)Cc1ccc(F)cc1` [Example 119, Phe(4-F)-N-Me-Val-Tyr(3-tBu)-NH-n-Pr] (H-[Phe(4-F)]-[NMeV]-[Tyr(3-tBu)]-NHPr), the IC50 (motilin receptor) was 0.4 nM and the Kb [1] was 0.398 nM.

In the case of `CC(C)NC(=O)[C@H](Cc1ccc(O)c(C(C)(C)C)c1)NC(=O)[C@H](C(C)C)N(C)C(=O)[C@@H](N)Cc1ccc(F)cc1` [Example 120, Phe(4-F)-N-Me-Val-Tyr(3-tBu)-NH-i-Pr] (H-[Phe(4-F)]-[NMeV]-[Tyr(3-tBu)]-NHiPr), the IC50 (motilin receptor) is reported as 0.27 nM and the Kb [1] is reported as 1 nM.

Molecule `CC(C)[C@@H](C(=O)N(C)[C@@H](Cc1ccc(O)c(C(C)(C)C)c1)C(=O)NC1CC1)N(C)C(=O)[C@@H](N)Cc1ccc(F)cc1` [Example 121, Phe(4-F)-N-Me-Val-N-Me-Tyr(3-tBu)-NH-c-Pr] has an IC50 (motilin receptor) of 0.41 nM and a Kb [1] of 1.26 nM.

Molecule `CC(C)[C@@H](C(=O)N[C@@H](Cc1ccc(O)c(C(C)(C)C)c1)C(=O)NCO)N(C)C(=O)[C@@H](N)Cc1ccc(F)cc1` [Example 122, Phe(4-F)-N-Me-Val-Tyr(3-tBu)-NHCH2OH] has an IC50 (motilin receptor) of 0.47 nM and a Kb [1] of 1 nM.

For `CN[C@@H](Cc1ccc(F)cc1)C(=O)N(C)[C@H](C(=O)N[C@@H](Cc1ccc(O)c(C(C)(C)C)c1)C(=O)NCO)C(C)C` [Example 123, N-Me-Phe(4-F)-N-Me-Val-Tyr(3-tBu)-NHCH2OH], the IC50 (motilin receptor) was 0.7 nM and the Kb [1] was 0.794 nM.

`CCN[C@@H](Cc1ccc(F)cc1)C(=O)N(C)[C@H](C(=O)N[C@@H](Cc1ccc(O)c(C(C)(C)C)c1)C(=O)NCO)C(C)C` [Example 124, N-Et-Phe(4-F)-N-Me-Val-Tyr(3-tBu)-NHCH2OH] was tested, and the IC50 (motilin receptor) was 0.98 nM and the Kb [1] was 0.794 nM.

`CN[C@@H](Cc1ccc(F)cc1)C(=O)N(C)[C@H](C(=O)N(C)[C@@H](Cc1ccc(O)c(C(C)(C)C)c1)C(=O)NCO)C(C)C` [Example 125, N-Me-Phe(4-F)-N-Me-Val-N-Me-Tyr(3-tBu)-NHCH2OH] showed an IC50 (motilin receptor) of 1 nM and a Kb [1] of 1 nM.

Molecule `CCN[C@@H](Cc1ccc(F)cc1)C(=O)N(C)[C@H](C(=O)N(C)[C@@H](Cc1ccc(O)c(C(C)(C)C)c1)C(=O)NCO)C(C)C` [Example 126, N-Et-Phe(4-F)-N-Me-Val-N-Me-Tyr(3-tBu)-NHCH2OH] has an IC50 (motilin receptor) of 1.9 nM and a Kb [1] of 0.631 nM.

In the case of `CCN(C(=O)[C@H](C(C)C)N(C)C(=O)[C@@H](N)Cc1ccc(F)cc1)[C@@H](Cc1ccc(O)c(C(C)(C)C)c1)C(=O)NCO` [Example 127, Phe(4-F)-N-Me-Val-N-Et-Tyr(3-tBu)-NHCH2OH], the IC50 (motilin receptor) is reported as 1.7 nM and the Kb [1] is reported as 2 nM.

`CCN(C(=O)[C@H](C(C)C)N(C)C(=O)[C@H](Cc1ccc(F)cc1)NC)[C@@H](Cc1ccc(O)c(C(C)(C)C)c1)C(=O)NCO` [Example 128, N-Me-Phe(4-F)-N-Me-Val-N-Et-Tyr(3-tBu)-NHCH2OH] gave an IC50 (motilin receptor) of 1.5 nM and a Kb [1] of 2 nM.

In the case of `CCN[C@@H](Cc1ccc(F)cc1)C(=O)N(C)[C@H](C(=O)N(CC)[C@@H](Cc1ccc(O)c(C(C)(C)C)c1)C(=O)NCO)C(C)C` [Example 129, N-Et-Phe(4-F)-N-Me-Val-N-Et-Tyr(3-tBu)-NHCH2OH], the IC50 (motilin receptor) is reported as 4 nM and the Kb [1] is reported as 3.16 nM.

Molecule `CC(C)[C@@H](C(=O)N(C)[C@@H](Cc1ccc(O)c(C(C)(C)C)c1)C(=O)NCO)N(C)C(=O)[C@@H](N)Cc1ccc(F)cc1` [Example 132, Phe(4-F)-N-Me-Val-N-Me-Tyr(3-tBu)-NHCH2OH] has an IC50 (motilin receptor) of 0.86 nM and a Kb [1] of 1.26 nM.

`CC(C)[C@@H](C(=O)N(C)[C@@H](Cc1ccc(O)c(C(C)(C)C)c1)C(=O)N1CCOCC1)N(C)C(=O)[C@@H](N)Cc1ccc(F)cc1` [Example 133, (2S)-2-[(2S)-2-amino-3-(4-fluorophenyl)-N-methylpropanolyamino]-N-((1S)-1-{[3-(tert-butyl)-4-hydroxyphenyl]methyl}-2-morpholin-4-yl-2-oxoethyl)-3-methyl-N-methylbutanamide] (H-[Phe(4-F)]-[NMeV]-[NMeTyr(3-tBu)]-Morpholide) was tested, and the IC50 (motilin receptor) was 1.1 nM and the Kb [1] was 6.31 nM.

Work on `CC(C)[C@@H](C(=O)N(C)[C@@H](Cc1ccc(O)c(C(C)(C)C)c1)C(=O)N1CCN(S(C)(=O)=O)CC1)N(C)C(=O)[C@@H](N)Cc1ccc(F)cc1` [Example 134, (2S)-2-[(2S)-2-amino-3-(4-fluorophenyl)-N-methylpropanolyamino]-N-((1S)-1-{[3-(tert-butyl)-4-hydroxyphenyl]methyl}-2-[4-(methylsulfonyl)piperazinyl]-2-oxoethyl)-3-methyl-N-methylbutanamide] yielded an IC50 (motilin receptor) of 1.5 nM and a Kb [1] of 5.01 nM.

Molecule `CCOC(=O)CN1CCN(C(=O)[C@H](Cc2ccc(O)c(C(C)(C)C)c2)N(C)C(=O)[C@H](C(C)C)N(C)C(=O)[C@@H](N)Cc2ccc(F)cc2)CC1` [Example 135, ethyl 2-[4-((2S)-2-{(2S)-2-[(2S)-2-amino-3-(4-fluorophenyl)-N-methylpropanolyamino]-3,N-dimethylbutanoylamino}-3-[3-(tert-butyl)-4-hydroxyphenyl]propanoyl)piperazinyl]acetate] has an IC50 (motilin receptor) of 0.7 nM and a Kb [1] of 3.16 nM.

For `CC(C)[C@@H](C(=O)N(C)[C@@H](Cc1ccc(O)c(C(C)(C)C)c1)C(=O)N1CCN(CC(=O)O)CC1)N(C)C(=O)[C@@H](N)Cc1ccc(F)cc1` [Example 136, 2-[4-((2S)-2-{(2S)-2-[(2S)-2-amino-3-(4-fluorophenyl)-N-methylpropanolyamino)-3,N-dimethylbutanoylamino}-3-[3-(tert-butyl)-4-hydroxyphenyl]propanoyl)piperazinyl]acetic acid], the IC50 (motilin receptor) was 6.8 nM and the Kb [1] was 25.1 nM.

For `CCC[C@@H](C(=O)N(C)[C@@H](Cc1ccc(O)c(C(C)(C)C)c1)C(N)=O)N(C)C(=O)[C@@H](N)Cc1ccc(F)cc1` [Example 140, Phe(4-F)-N-Me-Nva-N-Me-Tyr(3-tBu)-NH2] (H-[Phe(4-F)]-[NMeNva]-[NMeTyr(3-tBu)]-NH2), the IC50 (motilin receptor) was 4 nM and the Kb [1] was 6.31 nM.

For `CCC(C)[C@@H](C(=O)N(C)[C@@H](Cc1ccc(O)c(C(C)(C)C)c1)C(N)=O)N(C)C(=O)[C@@H](N)Cc1ccc(F)cc1` (some centres unmarked) [Example 142, Phe(4-F)-N-Me-Ile-N-Me-Tyr(3-tBu)-NH2] (H-[Phe(4-F)]-[NMeIle(3ξ)]-[NMeTyr(3-tBu)]-NH2), the IC50 (motilin receptor) was 0.62 nM and the Kb [1] was 2.51 nM.

`CC(C)C[C@@H](C(=O)N(C)[C@@H](Cc1ccc(O)c(C(C)(C)C)c1)C(N)=O)N(C)C(=O)[C@@H](N)Cc1ccc(F)cc1` [Example 144, Phe(4-F)-N-Me-Leu-N-Me-Tyr(3-tBu)-NH2] (H-[Phe(4-F)]-[NMeL]-[NMeTyr(3-tBu)]-NH2) was tested, and the IC50 (motilin receptor) was 2 nM and the Kb [1] was 3.16 nM.

With `CN(C(=O)[C@@H](N)Cc1ccc(F)cc1)[C@@H](CC(C)(C)C)C(=O)N(C)[C@@H](Cc1ccc(O)c(C(C)(C)C)c1)C(N)=O` [Example 148, Phe(4-F)-N-Me-Leu(γ-Me)-N-Me-Tyr(3-tBu)-NH2] (H-[Phe(4-F)]-[NMetBuAla]-[NMeTyr(3-tBu)]-NH2) the IC50 (motilin receptor) was 4.1 nM and the Kb [1] was 3.98 nM.
